From patent publication US20250296959A1, “B7-H3 TARGETING PEPTIDES AND CONSTRUCTS THEREOF” (Mariana Oncology Inc., priority 2024, published 2025)
Where two headings read alike, the source gives them in different places. Starred links: 1 amine or outer side, 2 acyl side, 3 side chain; linkers in the order of their positions; H or OH if unused. Positions of bridges follow the written chain, without caps; N, C: chain ends. Non-standard residues stand in square brackets, D forms with d. Residues, ends and D or L forms follow the SMILES beside them. Groups on a side chain read outwards from the residue. *: point of attachment. Ala(1-CH2CO2H-4-piperidyl) = N[C@@H](CC1CCN(CC(=O)O)CC1)C(=O)O; Ala(piperidin-4-yl) = O=C([C@H](CC1CCN([*:3])CC1)N[*:1])[*:2]; Phe(3-CH2NH2) = O=C([C@H](Cc1cccc(CN[*:3])c1)N[*:1])[*:2]; DOTA = O=C(O)CN1CCN(CC(=O)O)CCN(CC(=O)*)CCN(CC(=O)O)CC1; Tyr(SO2F) = N[C@@H](Cc1ccc(OS(=O)(=O)F)cc1)C(=O)O; Phe(4-COOH) = N[C@@H](Cc1ccc(C(=O)O)cc1)C(=O)O; Trp(5-F) = N[C@@H](Cc1c[nH]c2ccc(F)cc12)C(=O)O; PEG8 = NCCOCCOCCOCCOCCOCCOCCOCCOCCC(=O)O; 1Nal = N[C@@H](Cc1cccc2ccccc12)C(=O)O; Ala(4-THP) = N[C@@H](CC1CCOCC1)C(=O)O; Val(3-OH) = CC(C)(O)[C@H](N)C(=O)O; 4Pal = N[C@@H](Cc1ccncc1)C(=O)O; Cit = NC(=O)NCCC[C@H](N)C(=O)O; PEG4 = NCCOCCOCCOCCOCCC(=O)O; Tle = CC(C)(C)[C@H](N)C(=O)O; hLeu = CC(C)CC[C@H](N)C(=O)O; NMeS = CN[C@@H](CO)C(=O)O; hSer = N[C@@H](CCO)C(=O)O; Nle = CCCC[C@H](N)C(=O)O; Nva = CCC[C@H](N)C(=O)O

Biological target: T1, human 4lg B7-H3 (Homo sapiens, UniProt Q5ZPR3)
T1 sequence (Q5ZPR3 29-534): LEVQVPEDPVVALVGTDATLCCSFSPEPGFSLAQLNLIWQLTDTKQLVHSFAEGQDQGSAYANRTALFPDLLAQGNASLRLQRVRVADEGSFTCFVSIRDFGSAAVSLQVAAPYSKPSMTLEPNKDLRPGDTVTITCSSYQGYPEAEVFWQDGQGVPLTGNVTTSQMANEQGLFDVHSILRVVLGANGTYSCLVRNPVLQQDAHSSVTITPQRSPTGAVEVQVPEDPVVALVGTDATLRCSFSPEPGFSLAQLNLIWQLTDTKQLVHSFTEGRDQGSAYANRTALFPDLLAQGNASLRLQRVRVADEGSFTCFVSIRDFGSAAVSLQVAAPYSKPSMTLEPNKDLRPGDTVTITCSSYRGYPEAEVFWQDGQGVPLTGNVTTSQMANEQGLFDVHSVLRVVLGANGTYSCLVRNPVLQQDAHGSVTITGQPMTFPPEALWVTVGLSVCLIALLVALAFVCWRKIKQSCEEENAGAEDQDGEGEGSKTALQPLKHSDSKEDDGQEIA
Experiment: Affinity determination by surface plasmon resonance (SPR) to 4Ig B7-H3

[1] = SPR KD—37° C., 4Ig B7-H3, 37° C. flow cell temperature
[2] = SPR KD—25° C., 4Ig B7-H3, 25° C. flow cell temperature

## CC(=O)N[C@@H](CCC(C)C)C(=O)N[C@@H](Cc1ccc(O)cc1)C(=O)N[C@H]1CSSC[C@@H](C(=O)N[C@@H](Cc2c[nH]c3ccc(F)cc23)C(=O)N[C@@H](Cc2ccccc2)C(=O)N[C@H](C(=O)N[C@H](CCCCNC(=O)CN2CCN(CC(=O)O)CCN(CC(=O)O)CCN(CC(=O)O)CC2)C(=O)O)C(C)(C)O)NC(=O)[C@H](Cc2ccc(O)cc2)NC(=O)[C@H](CCO)NC(=O)[C@H](CC(=O)O)NC(=O)[C@H](CC2CCOCC2)NC(=O)[C@H](CCCCN)NC(=O)CNC(=O)[C@H](C(C)(C)C)NC1=O [compound 373, Ac-hLeu-Y-C-Tbg-G-K-ThpA-D-hSer-Y-C-5FW-F-hydroxyVal-dLys(DOTA)-COOH] (Ac-[hLeu]YC[Tle]GK[Ala(4-THP)]D[hSer]YC[Trp(5-F)]F[Val(3-OH)][dK](DOTA)-OH; disulfide 3-11)
[1]
  Kd: 1 to 10 nM

## CC(=O)N[C@@H](CCC(C)C)C(=O)N[C@@H](Cc1ccc(O)cc1)C(=O)N[C@H]1CSSC[C@@H](C(=O)N[C@@H](Cc2c[nH]c3ccc(F)cc23)C(=O)N[C@@H](Cc2ccccc2)C(=O)N[C@H](C(N)=O)[C@@H](C)O)NC(=O)[C@H](Cc2cccc(CNC(=O)CN3CCN(CC(=O)O)CCN(CC(=O)O)CCN(CC(=O)O)CC3)c2)NC(=O)[C@H](C(C)C)NC(=O)[C@H](CC(=O)O)NC(=O)[C@H](Cc2ccc(O)cc2)NC(=O)[C@H](CCCCN)NC(=O)CNC(=O)[C@H](C(C)C)NC1=O [compound 183, Ac-hLeu-Y-C-V-G-K-Y-D-V-MAF(DOTA)-C-5FW-F-Thr-CONH2] (Ac-[hLeu]YCVGKYDV[Phe(3-CH2NH2)](DOTA)C[Trp(5-F)]FT-NH2; disulfide 3-11)
[2]
  Kd: 1 to 10 nM

## CC(=O)N[C@@H](CCC(C)C)C(=O)N[C@@H](Cc1ccc(O)cc1)C(=O)N[C@H]1CSSC[C@@H](C(=O)N[C@@H](Cc2c[nH]c3ccc(F)cc23)C(=O)N[C@@H](Cc2ccccc2)C(=O)N[C@H](C(=O)N[C@H](C)C(=O)O)C(C)(C)O)NC(=O)[C@H](Cc2ccc(O)cc2)NC(=O)[C@H](C(C)C)NC(=O)[C@H](CC(=O)O)NC(=O)[C@H](CC2CCN(C(=O)CCOCCOCCOCCOCCNC(=O)CN3CCN(CC(=O)O)CCN(CC(=O)O)CCN(CC(=O)O)CC3)CC2)NC(=O)[C@H](CCCNC(N)=O)NC(=O)CNC(=O)[C@H](C(C)(C)C)NC1=O [compound 489, Ac-hLeu-Y-C-Tbg-G-Cit-Pip(PEG4-DOTA)Ala-D-V-Y-C-5FW-F-hydroxyVal-dAla-COOH] (Ac-[hLeu]YC[Tle]G[Cit][Ala(piperidin-4-yl)]([PEG4-DOTA])DVYC[Trp(5-F)]F[Val(3-OH)][dA]-OH; disulfide 3-11)
read-out: SPR KD—37° C., 4Ig B7-H3, 37° C. flow cell temperature
  Kd: < 1 nM

## CC(=O)N[C@@H](CCC(C)C)C(=O)N[C@@H](Cc1ccc(O)cc1)C(=O)N[C@H]1CSSC[C@@H](C(=O)N[C@@H](Cc2c[nH]c3ccccc23)C(=O)N[C@@H](Cc2ccccc2)C(=O)N2CCC[C@H]2C(=O)N[C@@H](CCCCNC(=O)CN2CCN(CC(=O)O)CCN(CC(=O)O)CCN(CC(=O)O)CC2)C(N)=O)NC(=O)[C@H](Cc2ccc(O)cc2)NC(=O)[C@H](C(C)C)NC(=O)[C@H](CC(=O)O)NC(=O)[C@H](Cc2ccc(O)cc2)NC(=O)[C@H](CCCCN)NC(=O)CNC(=O)[C@H](C(C)C)NC1=O [compound 141, Ac-hLeu-Y-C-V-G-K-Y-D-V-Y-C-W-F-Pro-dLys(DOTA)-CONH2] (Ac-[hLeu]YCVGKYDVYCWFPK(DOTA)-NH2; disulfide 3-11)
[2]
  Kd: 1 to 10 nM

## CC(=O)N[C@@H](CCC(C)C)C(=O)N[C@@H](Cc1ccc(OS(=O)(=O)F)cc1)C(=O)N[C@H]1CSSC[C@@H](C(=O)N[C@@H](Cc2c[nH]c3ccc(F)cc23)C(=O)N[C@@H](Cc2ccccc2)C(=O)N[C@H](C(=O)N[C@H](CCCCNC(=O)CN2CCN(CC(=O)O)CCN(CC(=O)O)CCN(CC(=O)O)CC2)C(=O)O)C(C)(C)O)NC(=O)[C@H](Cc2ccc(O)cc2)NC(=O)[C@H](C(C)C)NC(=O)[C@H](CC(=O)O)NC(=O)[C@H](CC2CCOCC2)NC(=O)[C@H](CC2CCNCC2)NC(=O)CNC(=O)[C@H](C(C)(C)C)NC1=O [compound 478, Ac-hLeu-FSY-C-Tbg-G-PipAla-ThpA-D-V-Y-C-5FW-F-hydroxyVal-dLys(DOTA)-COOH] (Ac-[hLeu][Tyr(SO2F)]C[Tle]G[Ala(piperidin-4-yl)][Ala(4-THP)]DVYC[Trp(5-F)]F[Val(3-OH)][dK](DOTA)-OH; disulfide 3-11)
  Kd: 10 to 100 nM

## CC(=O)N[C@@H](CCC(C)C)C(=O)N[C@@H](Cc1ccc(O)cc1)C(=O)N[C@H]1CSSC[C@@H](C(=O)N[C@@H](Cc2c[nH]c3ccc(F)cc23)C(=O)N[C@@H](Cc2ccccc2)C(=O)N[C@H](C(=O)N[C@H](CCC(=O)O)C(N)=O)C(C)(C)O)NC(=O)[C@H](Cc2ccc(O)cc2)NC(=O)[C@H](C(C)C)NC(=O)[C@H](CC(=O)O)NC(=O)[C@H](CC2CCN(CC(=O)O)CC2)NC(=O)[C@H](CCCCNC(=O)CN2CCN(CC(=O)O)CCN(CC(=O)O)CCN(CC(=O)O)CC2)NC(=O)CNC(=O)[C@H](C(C)(C)C)NC1=O [compound 421, Ac-hLeu-Y-C-Tbg-G-Lys(DOTA)-Pip(CH2COOH)Ala-D-V-Y-C-5FW-F-hydroxyVal-dGlu-CONH2] (Ac-[hLeu]YC[Tle]GK(DOTA)[Ala(1-CH2CO2H-4-piperidyl)]DVYC[Trp(5-F)]F[Val(3-OH)][dE]-NH2; disulfide 3-11)
[1]
  Kd: 1 to 10 nM

## CC(=O)N[C@@H](CCC(C)C)C(=O)N[C@@H](Cc1ccc(O)cc1)C(=O)N[C@H]1CSSC[C@@H](C(=O)N[C@@H](Cc2c[nH]c3ccccc23)C(=O)N[C@@H](Cc2ccccc2)C(=O)N[C@H](C(=O)N[C@H](CCCCNC(=O)CN2CCN(CC(=O)O)CCN(CC(=O)O)CCN(CC(=O)O)CC2)C(N)=O)[C@@H](C)O)NC(=O)[C@H](Cc2ccc(O)cc2)NC(=O)[C@H](C(C)C)NC(=O)[C@H](CC(=O)O)NC(=O)[C@H](Cc2ccc(O)cc2)NC(=O)[C@H](CCCCN)NC(=O)CNC(=O)[C@H](C(C)(C)O)NC1=O [compound 122, Ac-hLeu-Y-C-hydroVal-G-K-Y-D-V-Y-C-W-F-Thr-dLys(DOTA)-CONH2] (Ac-[hLeu]YC[Val(3-OH)]GKYDVYCWFT[dK](DOTA)-NH2; disulfide 3-11)
[2]
  Kd: 10 to 100 nM

## CC(=O)N[C@@H](CCC(C)C)C(=O)N[C@@H](Cc1ccc(O)cc1)C(=O)N[C@H]1CSSC[C@@H](C(=O)N[C@@H](Cc2cccc3ccccc23)C(=O)N[C@@H](Cc2ccccc2)C(=O)N(C)[C@@H](CO)C(=O)N[C@H](CCCCNC(=O)CN2CCN(CC(=O)O)CCN(CC(=O)O)CCN(CC(=O)O)CC2)C(N)=O)NC(=O)[C@H](CC2CCOCC2)NC(=O)[C@H](C(C)C)NC(=O)[C@H](CC(=O)O)NC(=O)[C@H](Cc2ccncc2)NC(=O)[C@H](CCCCN)NC(=O)CNC(=O)[C@H](C(C)(C)C)NC1=O [compound 223, Ac-hLeu-Y-C-Tbg-G-K-4PyA-D-V-ThpA-C-1Nal-F-NMeSer-dLys(DOTA)-CONH2] (Ac-[hLeu]YC[Tle]GK[4Pal]DV[Ala(4-THP)]C[1Nal]F[NMeS][dK](DOTA)-NH2; disulfide 3-11)
[2]
  Kd: 10 to 100 nM

## CCCC[C@@H]1NC(=O)[C@H](C(C)C)NC(=O)[C@H](CC(=O)O)NC(=O)[C@H](Cc2ccc(C(=O)O)cc2)NC(=O)[C@H](CCCCN)NC(=O)CNC(=O)[C@H](C(C)C)NC(=O)[C@@H](NC(=O)[C@H](Cc2ccc(O)cc2)NC(=O)[C@H](CCC(C)C)NC(=O)CCOCCOCCOCCOCCOCCOCCOCCOCCNC(=O)CN2CCN(CC(=O)O)CCN(CC(=O)O)CCN(CC(=O)O)CC2)CSSC[C@@H](C(=O)N[C@@H](Cc2c[nH]c3ccc(F)cc23)C(=O)N[C@@H](Cc2ccccc2)C(=O)N2CCC[C@H]2C(N)=O)NC1=O [compound 293, DOTA-PEG8-hLeu-Y-C-V-G-K-4COOHPhe-D-V-Nle-C-5FW-F-Pro-CONH2] ({DOTA-PEG8}-[hLeu]YCVGK[Phe(4-COOH)]DV[Nle]C[Trp(5-F)]FP-NH2; disulfide 3-11)
[2]
  Kd: 10 to 100 nM

## CC(=O)N[C@@H](CCC(C)C)C(=O)N[C@@H](Cc1ccc(O)cc1)C(=O)N[C@H]1CSSC[C@@H](C(=O)N[C@@H](Cc2c[nH]c3ccc(F)cc23)C(=O)N[C@@H](Cc2ccccc2)C(=O)N[C@H](C(=O)N[C@H](CCCCN)C(N)=O)C(C)(C)O)NC(=O)[C@H](Cc2ccc(O)cc2)NC(=O)[C@H](C(C)C)NC(=O)[C@H](CC(=O)O)NC(=O)[C@H](CC2CCOCC2)NC(=O)[C@H](CCCCNC(=O)CN2CCN(CC(=O)O)CCN(CC(=O)O)CCN(CC(=O)O)CC2)NC(=O)CNC(=O)[C@H](C(C)(C)C)NC1=O [compound 337, Ac-hLeu-Y-C-Tbg-G-Lys(DOTA)-ThpA-D-V-Y-C-5FW-F-hydroxyVal-dLys-CONH2] (Ac-[hLeu]YC[Tle]GK(DOTA)[Ala(4-THP)]DVYC[Trp(5-F)]F[Val(3-OH)][dK]-NH2; disulfide 3-11)
[1]
  Kd: 1 to 10 nM

## CCC[C@@H]1NC(=O)[C@@H](NC(=O)[C@H](Cc2ccc(O)cc2)NC(=O)[C@H](CCC(C)C)NC(C)=O)CSSC[C@@H](C(=O)N[C@@H](Cc2c[nH]c3ccc(F)cc23)C(=O)N[C@@H](Cc2ccccc2)C(=O)N[C@H](C(=O)N[C@H](CCCCNC(=O)CN2CCN(CC(=O)O)CCN(CC(=O)O)CCN(CC(=O)O)CC2)C(N)=O)[C@@H](C)O)NC(=O)[C@H](Cc2ccc(O)cc2)NC(=O)[C@H](C(C)C)NC(=O)[C@H](CC(=O)O)NC(=O)[C@H](Cc2ccc(O)cc2)NC(=O)[C@H](CCCCN)NC(=O)CNC1=O [compound 184, Ac-hLeu-Y-C-Nva-G-K-Y-D-V-Y-C-5FW-F-Thr-dLys(DOTA)-CONH2] (Ac-[hLeu]YC[Nva]GKYDVYC[Trp(5-F)]FT[dK](DOTA)-NH2; disulfide 3-11)
[2]
  Kd: 1 to 10 nM
